Results: patent publication US10159249B2 (BAYER CROPSCIENCE AKTIENGESELLSCHAFT, priority 2013, dated 2018)

Legend:
Euphorbia heterophylla = test: Field trial, weed efficacy, post applied; assay type: in vivo; details: Atrazine 1000 g ai/ha; application at 5 leaf stage; assessment 14 days after application
[1] = test system: Ipomoea aristolochiaefolia; details: Glyphosate 960 g ai/ha; application at 6 leaf stage; assessment 14 days after application
PfHPPDEvo40 = PfHPPDEvo40 (Pseudomonas sp., UniProt P80064, A172V/A339E/A53E/D148E/D45N/E105D/E287Q/E300V/E334P/F143Y/G286D/G335S/H150N/H254A/H63N/I158V/I187A/I249V/K92N/L18F/N24G/N280D/S245T/S257K/S301E/T205S/V65I); test: Brown color assay, HPPD inhibitor tolerance of E. coli HPPD extracts; details: extract titrated on 250 uM inhibitor; brown pigment formation
PfHPPDEvo40, sequence (P80064 other isoform, or with tags, fused parts or gaps with the stated changes): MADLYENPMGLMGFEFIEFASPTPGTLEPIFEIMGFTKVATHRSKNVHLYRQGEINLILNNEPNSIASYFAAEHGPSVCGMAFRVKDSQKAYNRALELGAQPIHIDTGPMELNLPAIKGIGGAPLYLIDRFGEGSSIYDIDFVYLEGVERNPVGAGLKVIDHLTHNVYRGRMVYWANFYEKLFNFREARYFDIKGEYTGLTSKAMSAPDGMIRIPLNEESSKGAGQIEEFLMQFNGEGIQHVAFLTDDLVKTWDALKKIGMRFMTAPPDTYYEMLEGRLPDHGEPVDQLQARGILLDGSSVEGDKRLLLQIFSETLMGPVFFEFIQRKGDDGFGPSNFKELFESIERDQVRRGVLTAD

Digitaria horizontalis = test: Field trial, weed efficacy, post applied; assay type: in vivo; details: application at 2 tillers, assessment 14 days after application
Amaranthus retroflexus = details: Glufosinate-ammonium 500 g ai/ha; application at 6 leaf stage; assessment 14 days after application

## CCNc1nc(Cl)nc(NC(C)C)n1 [Atrazine, reference compound]
Euphorbia heterophylla
  Efficacy (%) Euphorbia heterophylla: 74%

## O=C(O)CNCP(=O)(O)O [Glyphosate, reference compound]
[1]
  Efficacy (%) Ipomoea aristolochiaefolia: 70%

## CS(=O)(=O)c1cc(C(F)(F)F)ccc1C(=O)C(C#N)C(=O)C1CC1 (stereo not shown) [DKN, diketonitrile]
PfHPPDEvo40
  tolerance of variant PfHPPDEvo40 to the inhibitor compared to PfHPPD336W: improved tolerance

## CSc1nnc(C(C)(C)C)c(=O)n1N [Metribuzin]
Digitaria horizontalis; Metribuzin 240 g ai/ha
  Efficacy (%) Digitaria horizontalis: 15%
Digitaria horizontalis; Metribuzin 480 g ai/ha
  Efficacy (%) Digitaria horizontalis: 35%

## CP(=O)(O)CCC(N)C(=O)O (stereo not shown) [Glufosinate-ammonium, reference compound]
Amaranthus retroflexus
  Efficacy (%) Amaranthus retroflexus: 33%

## CS(=O)(=O)c1ccc(C(=O)C2C(=O)CCCC2=O)c(Cl)c1COCC(F)(F)F [TBT, tembotrione]
PfHPPDEvo40
  tolerance of variant PfHPPDEvo40 to the inhibitor compared to PfHPPD336W: improved tolerance
